Measured values reported in PubChem BioAssay (NCI).
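Cells were grown in 96-well plates and exposed to each compound for 48 hours at five concentrations; endpoints were interpolated linearly between bracketing concentrations, or set to the highest concentration if not reached. GI50 is the concentration that inhibits growth by half. TGI denotes the concentration required for complete inhibition of growth.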

Columns and labels:
Assay in all cases: DTP human tumour cell line panel, 48 h
SR leukemia = test system: SR leukemia
RXF 393 renal = test system: RXF 393 renal
BT-549 breast = test system: BT-549 breast
NCI-H522 lung = test system: NCI-H522 lung
RPMI-8226 leukemia = test system: RPMI-8226 leukemia
OVCAR-3 ovarian = test system: OVCAR-3 ovarian
MDA-MB-231 breast = test system: MDA-MB-231 breast
MCF7 breast = test system: MCF7 breast
PC-3 prostate = test system: PC-3 prostate
CAKI-1 renal = test system: CAKI-1 renal

SMILES	GI50 (SR leukemia) [µM]	TGI (SR leukemia) [µM]	GI50 (RXF 393 renal) [µM]	TGI (RXF 393 renal) [µM]	GI50 (BT-549 breast) [µM]	TGI (BT-549 breast) [µM]	GI50 (NCI-H522 lung) [µM]	TGI (NCI-H522 lung) [µM]	GI50 (RPMI-8226 leukemia) [µM]	TGI (RPMI-8226 leukemia) [µM]	GI50 (OVCAR-3 ovarian) [µM]	TGI (OVCAR-3 ovarian) [µM]	GI50 (MDA-MB-231 breast) [µM]	TGI (MDA-MB-231 breast) [µM]	GI50 (MCF7 breast) [µM]	TGI (MCF7 breast) [µM]	GI50 (PC-3 prostate) [µM]	TGI (PC-3 prostate) [µM]	GI50 (CAKI-1 renal) [µM]	TGI (CAKI-1 renal) [µM]
NS(=O)(=O)OC[C@@H]1C[C@@H](n2ccc3c(NC4CCc5ccccc54)ncnc32)C[C@@H]1O (stereo partly specified)	0.0827	29.5	11.2	37.1	22.8	> 95.7	3.31	27.3	5.41	27.6	2.93	33.7	10.1	> 100	0.0386	> 100	17	> 100	0.52	> 100
COC([CH2][Hg][n]1cnc2c1c(=O)n(C)c(=O)n2C)CN1C(=O)c2ccccc2S1(=O)=O (stereo unspecified)	77.2	> 100	> 100	> 100	> 100	> 100	> 100	> 100	> 100	> 100	> 100	> 100	> 100	> 100	> 100	> 100	> 100	> 100	> 100	> 100
Fc1[nH]nc2ccc([C@@H]3Nc4ccc5[nH]ncc5c4[C@H]4C5CCC(C5)[C@@H]34)cc12 (stereo partly specified)	0.37	3.61	1.22	7.8	1.77	17.8	0.432	9.27	1.42	16.7	0.39	2.97	1.97	17.5	0.387	12.6	1.12	13.6	0.671	15
COc1cc(/C=N\NC(=O)CN2CCN(c3cc4c(cc3F)c(=O)c(C(=O)N/N=C/c3cc(OC)c(OC)c(OC)c3)cn4C3CC3)CC2)cc(OC)c1OC	0.324	> 100	1.63	30.4	0.199	0.461	0.249		0.299		0.214	0.458	0.25	0.781	0.362	> 100	0.244	0.656	> 50.5	> 100
CC(=O)OC1OC([C@@H]2c3cccc(O)c3C(=O)c3c(O)cc(C)cc32)C(O)C(O)C1O (stereo partly specified)	0.032	0.0859	0.35	1.58	0.0181	0.778		0.382	< 0.0153	< 0.0292	< 0.018	0.0485	< 0.0153	0.0377	0.282	2.78	< 0.01		0.0269	0.241
Nc1c(C(=O)c2cccc(CCS(N)(=O)=O)c2)cnn1-c1ccc(F)cc1	> 25	> 25	> 25	> 25	> 25	> 25	> 25	> 25	> 25	> 25	> 25	> 25	> 25	> 25	> 25	> 25	> 25	> 25	> 25	> 25
